Peptide text beside a SMILES is read from it. * marks the point of attachment. αGalNAc = CC(=O)N[C@@H]1[C@@H](O)[C@@H](O)[C@@H](CO)O[C@@H]1*
tested on: normal adult rats; experiment: Systemic (subcutaneous) administration to normal adult rats, pQCT bone densitometry of tibia; type: in vivo, rat; details: 0.4 ng/g B.W. every 2 days for two weeks, vs saline
Protocol: After humane sacrifice, long bones were collected from rats subjected to agent treatment as described in Examples 1 and 2. The bones were evaluated using densitometry techniques with the Norland Medical Systems pQCT scanner. The densitometric parameters that were determined included: • 1. Total Content, which is the mineral content of the bone within a 1 mm slice. • 2. Total Density, which is the mean density of the total bone. • 3. Trabecular Content, which is the mineral content of the trabecular bone within a 1 mm slice. • 4. Trabecular Density, which is the mean density of the trabecular bone • 5. Cortical Content, which is the mineral content of the cortical bone within a 1 mm slice. • 6. Cortical Density, which is the mean density of the […]. • 7. Periosteal circumference in the “circular ring model” in mm. • 8. Endosteal circumference in the “circular ring model” in mm. • 9. Total area (mm^2), which is the cross sectional area of the bone after the soft tissue has been peeled off. • 10. Cortical area (mm^2), which is the area assigned to be pure cortical. • 11. Trabecular area (mm^2), which is the cross sectional area of the trabecular area after the cortical and subcortical area has been peeled off. Effects of Agents on Bone Density:
Non-glycosylated fADBP, at a dosage of 0.4 ng/g of body weight, was administered by subcutaneous injection into normal adult rats every two days for two weeks. The effect of this treatment on bone density and DpD levels was assayed as described above.
Glycosylated fADBP, at a dosage of 5.0 ng/g of body weight was administered by subcutaneous injection into normal adult rats every two days for two weeks. The effect of this treatment on bone density was assayed as described above.
Non-glycosylated DBP peptides of different lengths, at a dosage of 0.4 ng/g of body weight, were administered by subcutaneous injection into normal adult rats every two days for two weeks. The DBP peptides were derived from fADBP and comprised the first 3, 4, 5, 6, 7, 8, 9, 10, 11, 12, and 13 amino acids of SEQ ID NO. 1. After humane sacrifice, the tibia was collected from control and DBP peptide treated rats and analyzed using densitometry techniques with the Norland Medical Systems pQCT scanner. Statistical analysis was performed

Molecule | Total Bone Density
DBP peptide 3: first 3 amino acids of SEQ ID NO. 1 (Thr Pro Thr) (TPT; listed as Homo sapiens) | significantly increased
DBP peptide 4: first 4 amino acids of SEQ ID NO. 1 (Thr Pro Thr Glu) (TPTE; listed as Homo sapiens) | significantly increased
DBP peptide 5: first 5 amino acids of SEQ ID NO. 1 (Thr Pro Thr Glu Leu) (TPTEL; listed as Homo sapiens) | significantly increased
DBP peptide 6: first 6 amino acids of SEQ ID NO. 1 (Thr Pro Thr Glu Leu Ala) (TPTELA; listed as Homo sapiens) | significantly increased
DBP peptide 7: first 7 amino acids of SEQ ID NO. 1 (Thr Pro Thr Glu Leu Ala Lys) (TPTELAK; listed as Homo sapiens) | significantly increased
DBP peptide 8: first 8 amino acids of SEQ ID NO. 1 (Thr Pro Thr Glu Leu Ala Lys Leu) (TPTELAKL; listed as Homo sapiens) | significantly increased
DBP peptide 10: first 10 amino acids of SEQ ID NO. 1 (Thr Pro Thr Glu Leu Ala Lys Leu Val Asn) (TPTELAKLVN; listed as Homo sapiens) | significantly increased
DBP peptide 11: first 11 amino acids of SEQ ID NO. 1 (Thr Pro Thr Glu Leu Ala Lys Leu Val Asn Lys) (TPTELAKLVNK; listed as Homo sapiens) | significantly increased
DBP peptide 12: first 12 amino acids of SEQ ID NO. 1 (Thr Pro Thr Glu Leu Ala Lys Leu Val Asn Lys Arg) (TPTELAKLVNKR; listed as Homo sapiens) | significantly increased

tested on: Ovariectomized Sprague-Dawley rats; experiment: High-dose administration to ovariectomized Sprague-Dawley rats; type: in vivo; details: 100 ng/g to 30 μg/g body weight every day for 60 days
Protocol: Ovariectomized Sprague-Dawley rats were allowed to lose bone from 60 days. Thereafter, animals were injected with glycosylated fADBP or non-glycosylated fADBP, at concentrations ranging from 100 ng/g of body weight to 30 μg/g of body weight every day for 60 days.

Molecule | toxic effect
CC(=O)N[C@H]1[C@@H](O[C@H](C)[C@H](NC(=O)[C@@H]2CCCN2C(=O)[C@@H](N)[C@@H](C)O)C(=O)N[C@@H](CCC(=O)O)C(=O)N[C@@H](CC(C)C)C(=O)N[C@@H](C)C(=O)N[C@@H](CCCCN)C(=O)N[C@@H](CC(C)C)C(=O)N[C@H](C(=O)N[C@@H](CC(N)=O)C(=O)N[C@@H](CCCCN)C(=O)N[C@@H](CCCNC(=N)N)C(=O)N[C@@H](CO)C(=O)N[C@@H](CCC(=O)O)C(=O)O)C(C)C)O[C@H](CO)[C@H](O)[C@@H]1O [Glycosylated fADBP] (H-TPT(αGalNAc)ELAKLVNKRSE-OH) | no detectable toxic effect
